# Reference: patent publication US8354570B2, “Disease resistant plants” (Enza Zaden Beheer B.V., priority 2005, dated 2013)
# “Also recorded” adds a separate entry of the source.
# Key:
# [1] = tested on: H. parasitica isolate Cala2; experiment: Microscopy of trypan blue stained seedlings: growth and development of H. parasitica in planta; format: in vivo, Hyaloperonospora parasitica; conditions: for haustorial development: 5 mM infiltration, microscopy, 40x magnification, FIG. 7b
# Procedure: (§1) To test if the effect is specific for homoserine the stereo-isomer D-homoserine was tested. Whole seedlings were infiltrated with water, 5 mM D-homoserine and 5 mM L-homoserine. […] The infiltration was applied to two Arabidopsis accessions, Ler eds1-2 and Ws eds1-1, susceptible to Cala2 and Waco9, respectively. Conidiophore formation was determined as an indicator for H. parsitica susceptibility. Conidiophores were counted 5 days post inoculation with H. parasitica and 2 days post infiltration with water, D-homoserine or L-homoserine. (FIG. 6). […] This was further confirmed by studying pathogen growth in planta by trypan blue staining of Arabidopsis seedlings. Plants were inoculated with isolate Cala2. Two days later the plants were treated by infiltration with water, 5 mM D-homoserine, and 5 mM L-homoserine.
# Again it is shown that increased levels of homoserine in planta lead to pathogen resistance.
# [2] = tested on: H. parasitica isolates Cala2 and Waco9; experiment: Conidiophore counting on H. parasitica-inoculated Arabidopsis seedlings infiltrated with homoserine; format: in vivo, Hyaloperonospora parasitica
# Procedure: The inoculated seedlings were infiltrated with dH2O, D-homoserine (5 mM) or L-homoserine (5 mM) at 3 days post inoculation with the pathogen.
# as §1
# [3] = 5 mM infiltration of whole Arabidopsis seedlings
Compound,haustorial development [1],"pathogen growth [2, 3]","resistance / susceptibility to H. parasitica [2, 3]","pathogen growth in planta (trypan blue staining) ([1]; 5 mM infiltration two days after inoculation with Cala2, scored 5 days post inoculation, FIG. 7)","conidiophore formation (microscopy) ([1]; 5 mM infiltration two days after inoculation with Cala2, scored 5 days post inoculation, Ler eds1-2 seedlings, trypan blue, FIG. 7)","conidiophore formation (number of conidiophores per seedling) ([2]; 5 mM infiltration of whole seedlings, counted 5 days post inoculation, 2 days post infiltration, Ler eds1-2 (Cala2) and Ws eds1-1 (Waco9), FIG. 6)"
"N[C@H](CCO)C(=O)O [D-homoserine, reference compound]",not,did not show a large reduction in pathogen growth,susceptible to H. parasitica,,,
N[C@@H](CCO)C(=O)O [L-homoserine],affected; also recorded: disturbed,,resistant; also recorded: resulted in resistance to H. parasitica,strongly reduced pathogen growth,No conidiophore formation was detected,complete absence of conidiophore formation; also recorded: reduction of conidiophore formation
